Experimental findings from US8445491B2, “Wnt protein signalling inhibitors” (The Board of Regents of the University of Texas System, priority 2008, dated 2013) are described below.

Data set [1] relates to caudal fin regeneration in zebrafish. Briefly: caudal fin regeneration assay in zebrafish. It is filed as in vivo. Conditions: for caudal fin regeneration after mechanical resection: zebrafish, compound in water 10 μM, 4 days. The protocol: FIG. 25. […] Arrows indicate the points of resection.
(§1) 6 month-old zebrafish were incubated 8 or 14 days at 28.5° C. in aquarium water supplemented with 10 μM IWR or in 0.1% DMSO as a control. Fish were fed standard diet, and solutions were changed daily. At the end of the exposure, zebrafish were incubated in 1 mM BrdU in aquarium water for 2 hrs at room temperature, then washed several times in aquarium water, anesthetized with 0.1% Tricaine, and fixed in 4% paraformaldehyde for 48 hrs at 4° C. The intestine was dissected out, dehydrated, paraffin embedded and sectioned at […] intervals. Sections were stained with Hematoxylin and Eosin or processed for BrdU immunohistochemistry as described (Shepard et al., 2005). Sections from 8 animals each from IWR and DMSO groups were independently scored by four blinded observers. The total number of intestinal folds and total number of BrdU-positive nuclei in the mid and distal sections of the intestine were counted from each section. For caudal fin regeneration assays, zebrafish, 3-6 months of age, were anaesthetized in 0.2% Tricaine and half of the fin was resected using a razor blade to remove Amputees were reared at 31° C. in tanks containing either 300 ml of water with DMSO or IWR (10 μM). Water and compounds were replenished daily for a total assay period of 4 days.

The subject of another data set is Wnt3A. In words: Wnt3A phase separation (lipidation) assay in HEK 293 cells. It is filed as cell-based, human. Conditions: detergent solubility fractionation assay. The protocol: Biochemical studies involving L-Wnt-STF or DLD-1 cells were performed in either 48- or 6-well format with IWR (10 μM) or IWP (5 μM) compounds and/or cycloheximide (100 μM) in a 48 hr assay period. Targeting of APC using RNAi in L-cells was achieved by transfecting cells with SMARTPool APC siRNAs (50 nM; Dharmacon). E-cadherin depletion studies were performed at 4° C. using DLD-1 cells lysed in PBS/1% NP-40/protease inhibitors. For Wnt3A phase separation assays, murine Porcupine (C isoform) and human Wnt3A-myc were transfected into HEK 293 cells (6 well format, 400K cells/well) as appropriate using Effectene transfection reagent (QIAGEN). After 48 hrs of incubation, cells were lysed for 15 min, RT with PL buffer (distilled water, 10 mM tris-HCl, 150 mM NaCl)/1% TritionX-114. Lysate was briefly chilled on ice, pelleted for 10 min 4° C., and the supernatant combined with an equal volume of PL buffer/3.5% TX-114. Solutions were rotated for 15 min at 4° C., placed at 37° C. for 5 mM followed by an additional centrifugation for 5 mM at 2000 g, RT. Distinct phases were collected and combined with PL buffer to a total volume of 1 mL Samples were chilled on ice, ConA sepharose (GE Healthcare) added, and samples rotated for 2 hrs at 4° C. Beads washed 2× with PL buffer, and a Western blot performed with eluted proteins using an anti-c-myc antibody. […]

Data set [2] has as its system Wnt/β-catenin pathway response induced by Wnt1, Wnt2, or Wnt3a. Briefly: STF reporter, pathway activity induced by Wnt1, Wnt2 or Wnt3a. In kind it is cell-based. As to conditions: FL normalized to RL. As to the method: FIGS. 9A-C. […] FIG. 9A. Summary of results relating to IWR and IWP compounds from the screening process. Wnt pathway tests were performed in either cells responding to autonomously-produced Wnt protein (L-Wnt-STF cells) or exogenously provided Wnt in conditioned medium (HEK293 cells). FIG. 9B. […] Left: schematic of Wnt-Gaussia luciferase (Wnt-GL) fusion protein used to monitor levels of secreted Wnt protein in the cell medium. Right: levels of Wnt-GL but not GL secreted from cells treated with IWP compounds are decreased as compared to cells treated with carrier. The Wnt-GL protein elicits levels of Wnt/β-catenin pathway response similar to that of Wnt3a protein (data not shown). FIG. 9C. […] FL activity was normalized to control RL activity as before.

For data set [3], the system named is lung cancer and colorectal cancer cells. In words: cancer cell growth study (Cell Titer Glo). In kind it is cell-based. Conditions: 6 days. As to the method: FIGS. 7A-D. Chemical inhibition of Wnt-mediated cellular responses in cancer. FIG. 7A. Growth-inhibitory effects of IWR and IWP compounds on cancerous cells. Cells derived from either lung or colon cancer, with known molecular changes that result in aberrant Wnt pathway response, were treated with increasing concentrations of either IWR-4 or IWP-1 for 6 days with medium and compounds replenished daily. Cell viability was measured using Cell-Titer Glo assays. FIG. 7B. Biochemical changes of Wnt pathway components in cancerous cells treated with either IWR or IWP compounds. Lysates from H460, or DLD-1 cells were treated with IWR or IWP and Western blotted for either Dvl2, Axin2, Axin1, or Actin. Whereas both cell lines express […], Axin2 expression is absent in H460 cells. FIG. 7C. Genetic evidence for non-β-catenin dependent Wnt-mediated signalling in cancerous cells. […]
In experiments involving IWR and IWP treatments, cancer cells were seeded into a 24 well format (2.5K cells/well) in the presence of the noted Wnt pathway inhibitors (0.5% DMSO final) Media and compound changed every 24 hours for 5 days. On day 6, ATP levels were quantitated via cell titer glo assay (Promega). […] ATP levels were measured 120 hrs later via Cell Titer Glo assay (Promega).
For orientation: In ATP-based viability assays light output follows the ATP content of the culture.

In data set [4] the test system is Axin2 and β-catenin in DLD-1 cells. In words: biochemical studies of destruction complex components in DLD-1 cells (Western blot, E-cadherin depletion, cycloheximide). It is filed as cell-based. From the text:
(§2) FIGS. 5A-H. Stabilization of the Axin2 destruction complex by IWR compounds. FIG. 5A. IWR compounds block β-catenin accumulation induced by loss of APC tumor suppressor. […] FIG. 5B. IWRs block aberrant Wnt/β-catenin pathway activity in the colorectal cancer (CRC) cells. Aberrant Wnt/β-catenin pathway activity in DLD-1 cells, CRC cells which harbor a loss-of-function mutation in APC, is abrogated by IWR compounds. Pathway activity was monitored using the STF reporter and normalized to RL control reporter as before. FIG. 5C. IWRs induce accumulation of Axin2 protein. Western blot analysis of proteins involved in regulating β-catenin levels in DLD-1 cells reveal accumulation of Axin2 protein in cells treated with IWR compounds with little change in expression levels of other pathway components. Note that the APC protein is truncated in these cells. FIG. 5D. Levels of β-catenin in CRC cells available for Wnt response are decreased in the presence of IWR compounds. […] FIG. 5E. IWR stabilizes Axin2 protein. Rapid destruction of Axin2 protein is apparent in DLD-1 cells treated with the protein synthesis inhibitor cycloheximide. […] FIG. 5F. […] FIG. 5G. […] FIG. 5H. A proposed model of IWR action. Addition of IWR to cells induces stabilization of Axin2 protein with consequential increase in β-catenin destruction.
(§3) Targeting of APC using RNAi in L-cells was achieved by transfecting cells with SMARTPool APC siRNAs (50 nM; Dharmacon). E-cadherin depletion studies were performed at 4° C. using DLD-1 cells lysed in PBS/1% NP-40/protease inhibitors. For Wnt3A phase separation assays, murine Porcupine (C isoform) and human Wnt3A-myc were transfected into HEK 293 cells (6 well format, 400K cells/well) as appropriate using Effectene transfection reagent (QIAGEN). After 48 hrs of incubation, cells were lysed for 15 min, RT with PL buffer (distilled water, 10 mM tris-HCl, 150 mM NaCl)/1% TritionX-114. Lysate was briefly chilled on ice, pelleted for 10 min 4° C., and the supernatant combined with an equal volume of PL buffer/3.5% TX-114. […]
In general terms: Immunoblotting shows a protein as a band on a membrane.

Data set [5] deals with zebrafish gastrointestinal (GI) tract. In words: homeostatic renewal of the zebrafish GI tract (BrdU incorporation, histology). In kind it is in vivo. The protocol: as §1
(Dividing cells build labelled thymidine or BrdU into new DNA.)

A further data set has as its system Wnt/β-catenin pathway. Briefly: Western blot of Wnt/β-catenin pathway markers (LRP6 and Dvl2 phosphorylation, β-catenin accumulation) in L-Wnt-STF cells. In kind it is cell-based, mouse. As to conditions: L-Wnt cells.
Description: FIG. 3. Biochemical evidence for Wnt/β-catenin pathway inhibition by IWR and IWP compounds. […] Cellular lysates were subjected to Western blot analysis to determine levels of LRP6 and Dvl2 phosphorylation, and β-catenin accumulation, all biochemical events associated with Wnt/β-catenin pathway activity. Predictably, IWPs blocked all three biochemical events, whereas IWRs appear to block β-catenin accumulation without affecting LRP6 and Dv12 phosphorylation. Kif3A and tubulin serve as loading controls.
as §3, with “Biochemical studies involving L-Wnt-STF or DLD-1 cells were performed in either 48- or 6-well format with IWR (10 μM) or IWP (5 μM) compounds and/or cycloheximide (100 μM) in a 48 hr assay period. Targeting” for “Targeting”, “TritionX-114.” for “TritionX-114. Lysate was briefly chilled on ice, pelleted for 10 min 4° C., and the supernatant combined with an equal volume of PL buffer/3.5% TX-114.”

A further data set relates to β-catenin. In words: β-catenin accumulation in L-cells treated with APC siRNAs. In kind it is cell-based. As to conditions: mouse L-cells treated with APC siRNAs.
Description: as §2, with “destruction. […]” for “destruction.”

In the case of `Cc1ccc2nc(NC(=O)CSc3nc4c(c(=O)n3-c3ccccc3)SCC4)sc2c1` [IWP-2], the “caudal fin regeneration after mechanical resection” value in data set [1] is “failed to do so”. Further, the “levels of lipidated Wnt3A” value in the data set with Wnt3A is “decreased”. For the same compound, in data set [2], the “pathway activity induced by Wnt1, Wnt2, or Wnt3a” value is “decreased”.
For the compound `COc1ccc(-n2nc(C(=O)NCC(=O)Nc3nc4ccc(OC)cc4s3)c3ccccc3c2=O)cc1` [IWP-1], the “inhibition of cancerous cell growth” value in data set [3] is “consistently more effective than IWR-4”.
As for `O=C(Nc1cccc2cccnc12)c1ccc(N2C(=O)[C@@H]3[C@H](C2=O)[C@@H]2C=C[C@H]3C2)cc1` [IWR-1], the “levels of β-catenin not bound to E-cadherin” value in data set [4] (DLD-1 cells) is on record as “decreased”. In addition, the Axin2 protein turn-over result in data set [4] (DLD-1 cells with cycloheximide) is “little turn-over of Axin2”. The “expression of Wnt/β-catenin target gene Axin2” value in data set [4] (DLD-1 cells, exposure for 2 h) was “decrease in the expression of Axing”. Also, in data set [1] (zebrafish bred 7 d in water containing compound, then removal), the “fin regeneration after removal of the chemical” value is on record as “able to regenerate tissue to nearly normal levels after chemical removal”. In addition, the “caudal fin regeneration after mechanical resection” value in data set [1] was “suppressed fin regeneration”. For the same compound, in data set [5] (zebrafish treated for periods longer than 4 days), the “adverse signs in treated fish” value is “lethargy and decreased appetite”. For the same compound, the “BrdU-labeled cells at the base of intestinal folds” value in data set [5] (zebrafish, 10 μM in water, 8 days) is “decreased number”. In addition, the “accumulation of β-catenin” value in the data set with Wnt/β-catenin pathway is “inhibit accumulation of β-catenin”. Besides, the “β-catenin accumulation induced by loss of APC” value in the data set on β-catenin is listed as “can be blocked”. Further, the “pathway activity induced by Wnt1, Wnt2, or Wnt3a” value in data set [2] was “decreased”.
